Literature values in US6462233B1, “Process for the preparation of sorbic acid” (Daicel Chemical Industries, Ltd., priority 1998, dated 2002).

Conditions: hot water around 100° C.

- solubility of sorbic acid: at most 3%
SMILES: C/C=C/C=C/C(=O)O [sorbic acid]
